ChEMBL document CHEMBL5053512, “Discovery and Preclinical Pharmacology of an Oral Bromodomain and Extra-Terminal (BET) Inhibitor Using Scaffold-Hopping and Structure-Guided Drug Design” (J Med Chem, 2021)

Assays:
[1] = molecular target: Bromodomain-containing protein 4 (Homo sapiens, UniProt O60885); assay: Inhibition of human BRD4 (1 to 477 residues) measured after 60 mins by TR-FRET assay
[2] = Inhibition of c-MYC expression in human JJN3R cells measured after 4 hrs; format: functional, cell-based; conditions: JJN-3R
[3] = Antitumour activity against human JJN3R cells measured after 72 hrs by MTS assay; format: functional, cell-based; conditions: JJN-3R
[4] = AUC (0 to 7 hrs) in mouse at 30 mg/kg, po; format: ADME, organism-based; set-up: time < 7 hr, dose 30 mg/kg, route po; conditions: in vivo
[5] = Metabolic stability in mouse liver microsomes assessed as parent compound remaining at 0.5 uM after 10 mins; format: ADME, Microsome; conditions: read-out: Stability
[6] = Permeability coefficient across basolateral to apical side in human Caco-2 cells; format: ADME, cell-based; conditions: read-out: permeability
[7] = Cmax in mouse at 30 mg/kg, po; format: ADME, organism-based; set-up: dose 30 mg/kg, route po; conditions: in vivo
[8] = Metabolic stability in human liver microsomes assessed as parent compound remaining at 0.5 uM after 10 mins; format: ADME, Microsome; conditions: read-out: Stability
[9] = Permeability coefficient across apical to basolateral side in human Caco-2 cells; format: ADME, cell-based; conditions: read-out: permeability
[10] = Permeability coefficient of the compound by PAMPA; format: ADME; conditions: read-out: permeability
[11] = Efflux ratio of permeability in human Caco-2 cells; format: ADME, cell-based
Cytochrome P450 1A2 = Cytochrome P450 1A2 (Homo sapiens, UniProt P05177); assay: Inhibition of CYP1A2 (unknown origin); format: ADME
Sequence of Cytochrome P450 1A2 (P05177 whole entry): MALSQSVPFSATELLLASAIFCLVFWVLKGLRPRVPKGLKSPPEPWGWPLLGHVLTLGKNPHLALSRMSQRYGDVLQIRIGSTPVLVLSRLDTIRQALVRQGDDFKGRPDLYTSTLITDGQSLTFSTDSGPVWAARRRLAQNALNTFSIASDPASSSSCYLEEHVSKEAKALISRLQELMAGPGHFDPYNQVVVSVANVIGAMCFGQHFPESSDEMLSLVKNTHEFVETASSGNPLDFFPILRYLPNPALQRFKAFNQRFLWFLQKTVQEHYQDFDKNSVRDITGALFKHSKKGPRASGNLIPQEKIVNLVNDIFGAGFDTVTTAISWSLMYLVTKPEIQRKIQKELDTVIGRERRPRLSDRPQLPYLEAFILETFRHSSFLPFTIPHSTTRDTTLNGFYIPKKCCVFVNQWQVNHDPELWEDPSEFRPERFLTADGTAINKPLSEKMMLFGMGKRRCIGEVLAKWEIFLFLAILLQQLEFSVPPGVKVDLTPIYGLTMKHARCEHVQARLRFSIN

[12] = molecular target: Bromodomain-containing protein 3 (Homo sapiens, UniProt Q15059); assay: Inhibition of human BRD3 measured by TR-FRET assay
Sequence of Bromodomain-containing protein 3 (Q15059 whole entry): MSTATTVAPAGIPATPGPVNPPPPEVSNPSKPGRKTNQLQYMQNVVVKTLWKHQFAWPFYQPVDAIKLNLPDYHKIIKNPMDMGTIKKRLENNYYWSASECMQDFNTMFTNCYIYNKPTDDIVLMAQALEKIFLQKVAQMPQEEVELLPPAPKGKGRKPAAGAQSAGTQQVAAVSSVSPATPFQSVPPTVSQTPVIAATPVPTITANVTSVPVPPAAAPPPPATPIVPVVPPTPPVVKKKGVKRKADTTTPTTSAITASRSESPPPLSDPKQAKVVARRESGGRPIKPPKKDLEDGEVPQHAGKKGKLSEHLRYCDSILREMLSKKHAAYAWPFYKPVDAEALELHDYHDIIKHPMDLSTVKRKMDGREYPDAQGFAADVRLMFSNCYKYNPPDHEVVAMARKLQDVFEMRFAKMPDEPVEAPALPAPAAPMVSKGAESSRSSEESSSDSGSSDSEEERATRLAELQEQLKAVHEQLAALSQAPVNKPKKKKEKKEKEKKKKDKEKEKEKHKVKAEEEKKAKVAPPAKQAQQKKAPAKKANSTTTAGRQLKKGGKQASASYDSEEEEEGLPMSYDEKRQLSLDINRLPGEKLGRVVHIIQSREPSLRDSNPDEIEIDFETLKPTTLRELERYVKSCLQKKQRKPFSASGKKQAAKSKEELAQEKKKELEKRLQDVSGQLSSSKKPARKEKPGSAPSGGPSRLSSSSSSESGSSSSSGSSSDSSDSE

[13] = molecular target: Bromodomain-containing protein 2 (Homo sapiens, UniProt P25440); assay: Inhibition of human BRD2 measured by TR-FRET assay
Sequence of Bromodomain-containing protein 2 (P25440 whole entry): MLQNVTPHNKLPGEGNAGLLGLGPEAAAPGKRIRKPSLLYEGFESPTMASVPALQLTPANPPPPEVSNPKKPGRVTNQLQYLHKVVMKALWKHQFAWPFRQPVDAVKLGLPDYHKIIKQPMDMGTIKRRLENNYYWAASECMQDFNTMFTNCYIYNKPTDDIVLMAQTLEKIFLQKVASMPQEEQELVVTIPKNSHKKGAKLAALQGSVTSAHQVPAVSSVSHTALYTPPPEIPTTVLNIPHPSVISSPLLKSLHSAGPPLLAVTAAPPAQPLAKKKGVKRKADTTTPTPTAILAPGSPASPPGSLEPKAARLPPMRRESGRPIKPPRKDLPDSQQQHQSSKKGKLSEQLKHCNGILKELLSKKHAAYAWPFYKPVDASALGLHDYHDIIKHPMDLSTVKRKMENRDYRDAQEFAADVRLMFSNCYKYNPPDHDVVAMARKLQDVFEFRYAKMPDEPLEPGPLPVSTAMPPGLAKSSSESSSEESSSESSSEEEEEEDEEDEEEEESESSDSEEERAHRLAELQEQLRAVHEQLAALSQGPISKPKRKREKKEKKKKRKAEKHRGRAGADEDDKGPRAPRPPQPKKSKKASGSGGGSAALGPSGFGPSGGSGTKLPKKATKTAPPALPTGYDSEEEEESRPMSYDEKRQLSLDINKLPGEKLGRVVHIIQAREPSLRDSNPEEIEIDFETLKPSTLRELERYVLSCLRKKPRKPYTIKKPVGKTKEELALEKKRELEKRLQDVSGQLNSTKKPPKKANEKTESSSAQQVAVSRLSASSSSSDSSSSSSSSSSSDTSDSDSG

Cytochrome P450 2D6 = Cytochrome P450 2D6 (Homo sapiens, UniProt P10635); assay: Inhibition of CYP2D6 (unknown origin); format: ADME
Sequence of Cytochrome P450 2D6 (P10635 whole entry): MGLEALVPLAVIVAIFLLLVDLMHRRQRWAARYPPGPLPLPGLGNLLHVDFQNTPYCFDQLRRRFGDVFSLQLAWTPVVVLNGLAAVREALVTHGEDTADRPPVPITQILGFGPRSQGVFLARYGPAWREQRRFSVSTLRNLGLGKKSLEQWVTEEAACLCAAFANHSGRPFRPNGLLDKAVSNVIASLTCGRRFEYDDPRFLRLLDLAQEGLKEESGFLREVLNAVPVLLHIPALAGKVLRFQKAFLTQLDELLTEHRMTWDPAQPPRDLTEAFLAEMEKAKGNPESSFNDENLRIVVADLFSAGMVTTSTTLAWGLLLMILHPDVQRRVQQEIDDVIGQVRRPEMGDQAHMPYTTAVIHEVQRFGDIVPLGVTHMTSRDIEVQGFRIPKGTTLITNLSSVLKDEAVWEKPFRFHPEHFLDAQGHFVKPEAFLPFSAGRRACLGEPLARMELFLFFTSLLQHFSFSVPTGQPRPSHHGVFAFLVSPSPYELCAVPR

[14] = molecular target: Voltage-gated inwardly rectifying potassium channel KCNH2 (Homo sapiens, UniProt Q12809); assay: Inhibition of human ERG by flux assay
Sequence of Voltage-gated inwardly rectifying potassium channel KCNH2 (Q12809 whole entry): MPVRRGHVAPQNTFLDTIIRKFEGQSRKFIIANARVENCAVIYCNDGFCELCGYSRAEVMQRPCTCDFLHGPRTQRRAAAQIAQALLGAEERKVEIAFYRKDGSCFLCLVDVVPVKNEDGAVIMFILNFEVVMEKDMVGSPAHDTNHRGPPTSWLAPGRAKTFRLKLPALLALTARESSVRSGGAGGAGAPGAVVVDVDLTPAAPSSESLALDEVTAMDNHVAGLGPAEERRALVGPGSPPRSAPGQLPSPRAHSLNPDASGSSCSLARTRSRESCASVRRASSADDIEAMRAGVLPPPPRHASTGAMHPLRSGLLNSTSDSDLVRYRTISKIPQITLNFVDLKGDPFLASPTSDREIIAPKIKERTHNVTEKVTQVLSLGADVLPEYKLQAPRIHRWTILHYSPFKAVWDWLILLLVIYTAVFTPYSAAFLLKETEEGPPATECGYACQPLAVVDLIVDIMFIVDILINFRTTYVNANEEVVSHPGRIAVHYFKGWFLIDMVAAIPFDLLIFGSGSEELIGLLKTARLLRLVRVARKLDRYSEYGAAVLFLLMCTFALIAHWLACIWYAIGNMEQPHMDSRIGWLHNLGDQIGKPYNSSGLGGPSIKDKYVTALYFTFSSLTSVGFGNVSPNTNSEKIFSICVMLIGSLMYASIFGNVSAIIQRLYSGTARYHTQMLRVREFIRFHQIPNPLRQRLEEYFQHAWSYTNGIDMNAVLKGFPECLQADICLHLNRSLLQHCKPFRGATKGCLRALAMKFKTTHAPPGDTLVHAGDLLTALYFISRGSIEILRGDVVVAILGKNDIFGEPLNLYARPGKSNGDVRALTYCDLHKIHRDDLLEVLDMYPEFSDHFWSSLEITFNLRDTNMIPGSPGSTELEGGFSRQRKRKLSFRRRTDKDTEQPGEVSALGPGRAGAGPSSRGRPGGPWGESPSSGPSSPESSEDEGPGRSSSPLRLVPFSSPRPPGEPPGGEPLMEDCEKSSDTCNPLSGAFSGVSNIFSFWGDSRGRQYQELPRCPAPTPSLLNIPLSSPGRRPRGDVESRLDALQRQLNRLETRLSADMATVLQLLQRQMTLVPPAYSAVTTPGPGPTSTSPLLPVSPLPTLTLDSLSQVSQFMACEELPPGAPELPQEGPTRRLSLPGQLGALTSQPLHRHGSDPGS

Cytochrome P450 3A4 = Cytochrome P450 3A4 (Homo sapiens, UniProt P08684); assay: Inhibition of CYP3A4 (unknown origin); format: ADME
Cytochrome P450 2C9 = Cytochrome P450 2C9 (Homo sapiens, UniProt P11712); assay: Inhibition of CYP2C9 (unknown origin); format: ADME
Sequence of Cytochrome P450 2C9 (P11712 whole entry): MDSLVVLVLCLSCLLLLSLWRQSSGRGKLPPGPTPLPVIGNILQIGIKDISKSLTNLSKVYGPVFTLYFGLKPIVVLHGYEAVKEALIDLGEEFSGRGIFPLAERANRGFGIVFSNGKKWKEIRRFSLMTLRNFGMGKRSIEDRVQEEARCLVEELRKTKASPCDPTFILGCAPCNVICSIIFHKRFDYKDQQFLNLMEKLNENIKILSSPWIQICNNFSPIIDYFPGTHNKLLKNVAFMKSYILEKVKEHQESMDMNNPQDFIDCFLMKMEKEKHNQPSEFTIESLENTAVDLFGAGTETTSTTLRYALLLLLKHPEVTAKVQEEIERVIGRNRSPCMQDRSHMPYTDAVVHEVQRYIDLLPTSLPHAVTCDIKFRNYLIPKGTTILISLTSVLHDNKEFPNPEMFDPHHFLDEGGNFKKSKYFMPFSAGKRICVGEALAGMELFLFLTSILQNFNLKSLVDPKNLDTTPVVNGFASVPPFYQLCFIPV

Cytochrome P450 2C19 = Cytochrome P450 2C19 (Homo sapiens, UniProt P33261); assay: Inhibition of CYP2C19 (unknown origin); format: ADME
Sequence of Cytochrome P450 2C19 (P33261 whole entry): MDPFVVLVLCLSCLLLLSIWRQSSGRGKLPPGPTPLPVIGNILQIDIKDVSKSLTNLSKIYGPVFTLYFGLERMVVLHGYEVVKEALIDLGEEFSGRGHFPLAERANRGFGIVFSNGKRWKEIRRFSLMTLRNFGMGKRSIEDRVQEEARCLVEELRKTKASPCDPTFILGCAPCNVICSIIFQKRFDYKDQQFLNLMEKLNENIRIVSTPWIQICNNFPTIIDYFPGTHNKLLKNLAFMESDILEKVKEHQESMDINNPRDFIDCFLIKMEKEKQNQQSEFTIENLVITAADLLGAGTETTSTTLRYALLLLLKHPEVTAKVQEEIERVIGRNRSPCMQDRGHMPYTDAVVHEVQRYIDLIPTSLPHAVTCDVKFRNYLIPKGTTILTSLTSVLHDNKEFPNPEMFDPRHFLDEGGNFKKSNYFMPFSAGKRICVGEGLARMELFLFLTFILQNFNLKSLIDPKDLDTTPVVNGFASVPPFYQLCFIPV

Row | SMILES | IC50 [1] [nM] | IC50 [2] [nM] | IC50 [3] [nM] | remaining at 10 min, 0.5 µM [5] [%] | remaining at 10 min, 0.5 µM [8] [%] | Papp [10] [×10⁻⁶ cm/s] | other results
1 | Cc1noc(C)c1-c1cc(C(N)=O)c2c3cc(C(=O)N4C[C@@H](C)O[C@@H](C)C4)ccc3n(CC3CC3)c2c1 | 69 | 259 | 422 |  |  |  | 
2 | Cc1noc(C)c1-c1cc(C(N)=O)c2c3ccc(C(C)(C)O)cc3n(Cc3ccccc3)c2c1 |  | 6.2 | 35 | 62 | 58 | 84.9 | AUC(0-t) at 7 h [4]: 27.1 µM·h; Papp B→A [6]: 20.2 ×10⁻⁶ cm/s; Cmax [7]: 7.1 µM; Papp A→B [9]: 7.6 ×10⁻⁶ cm/s
3 | Cc1noc(C)c1-c1cc(C(N)=O)c2[nH]c3cc(C(=O)N4CCOCC4)ccc3c2c1 | 712 | 1160 | > 2500 |  |  |  | 
4 | Cc1noc(C)c1-c1cc(C(N)=O)c2c(c1)c1ccc(C(=O)N3C[C@@H](C)O[C@@H](C)C3)cc1n2CC1CC1 | 23 | 51 | 525 |  |  |  | 
5 | Cc1nocc1-c1cc(C(N)=O)c2c(c1)c1ccc(C(=O)N3C[C@@H](C)O[C@@H](C)C3)cc1n2CC1CC1 | 131 | 268 | 2960 |  |  |  | 
6 | Cc1noc(C)c1-c1cc(C(N)=O)c2c3ccc(C(C)(C)O)cc3n(C(c3ccccc3)c3ccccc3)c2c1 | 1.5 | 3.9 | 11 | 26 | 13 | 68.2 | 
7 | Cc1noc(C)c1-c1cc(C(N)=O)c2c3ccc(C(C)(C)O)cc3n([C@@H](c3ccccc3)C3CCOCC3)c2c1 | 5.4 | 10 | 46 | 0 | 24 | 58.4 | 
8 | Cc1oncc1-c1cc(C(N)=O)c2c(c1)c1ccc(C(=O)N3C[C@@H](C)O[C@@H](C)C3)cc1n2CC1CC1 | 292 | 645 | 3530 |  |  |  | 
9 | Cc1noc(C)c1-c1cc(C(N)=O)c2c3ccc(C(C)(C)O)cc3n(CC3CCOCC3)c2c1 | 9.5 | 23 | 128 | 55 | 75 | 40.2 | 
10 | Cc1nnn(C)c1-c1cc(C(N)=O)c2c(c1)c1ccc(C(=O)N3C[C@@H](C)O[C@@H](C)C3)cc1n2CC1CC1 | 35 | 291 | 796 |  |  |  | 
11 | Cc1noc(C)c1-c1cc(C(N)=O)c2c(c1)c1ccc(C(=O)N3CCOCC3)cc1n2CC1CC1 | 39 | 93 | 414 |  |  |  | 
12 | Cc1noc(C)c1-c1cc(C(N)=O)c2c3cc(C(=O)N4C[C@@H](C)O[C@@H](C)C4)ccc3n(Cc3ccccc3)c2c1 | 4.2 | 13 | 38 | 19 | 9 | 80.9 | 
13 | Cc1noc(C)c1-c1cnc2c3ccc(C(C)(C)O)cc3n([C@H](c3ccccc3)C3CCOCC3)c2c1 | 1.9 | 1.5 | 8.4 | 42 | 54 | 98.4 | efflux ratio [11]: 0.9; AUC(0-t) at 7 h [4]: 45.7 µM·h; Papp B→A [6]: 22.9 ×10⁻⁶ cm/s; Cmax [7]: 9.2 µM; IC50 (Cytochrome P450 1A2): > 20000 nM; IC50 [12]: 1.9 nM; IC50 [13]: 1.7 nM; IC50 (Cytochrome P450 2D6): > 20000 nM; Papp A→B [9]: 26.3 ×10⁻⁶ cm/s; IC50 [14]: 51000 nM; IC50 (Cytochrome P450 3A4): > 20000 nM; IC50 (Cytochrome P450 2C9): 4100 nM; IC50 (Cytochrome P450 2C19): 1500 nM
14 | Cc1noc(C)c1-c1cc(C(N)=O)c2c3ccc(C(C)(C)O)cc3n([C@H](c3ccc(F)cc3)C3CCOCC3)c2c1 | 1.9 | 0.4 | 3.1 | 33 | 52 | 70.2 | efflux ratio [11]: 6.1; AUC(0-t) at 7 h [4]: 4.3 µM·h; Cmax [7]: 0.9 µM
15 | Cc1n[nH]c(C)c1-c1cc(C(N)=O)c2c(c1)c1ccc(C(=O)N3C[C@@H](C)O[C@@H](C)C3)cc1n2CC1CC1 | 530 | 1240 | 7600 |  |  |  | 
16 | Cc1noc(C)c1-c1cc(C(N)=O)c2c3ccc(C(C)(C)O)cc3n([C@H](c3ccccc3)C3CCOCC3)c2c1 | 1 | 0.9 | 3.1 | 20 | 52 | 67.1 | AUC(0-t) at 7 h [4]: 1 µM·h; Papp B→A [6]: 36.4 ×10⁻⁶ cm/s; Cmax [7]: 0.4 µM; Papp A→B [9]: 3.4 ×10⁻⁶ cm/s
17 | Cc1noc(C)c1-c1cc(C(N)=O)c2c3cc(C(C)(C)O)ccc3n(Cc3ccccc3)c2c1 | 4.5 | 23 | 95 |  |  | 74.9 | 
